Columns and labels:
Format in all cases: in vivo
[1] = Preclinical plasma level of cleavage product 12ADT-Asp after dosing; settings: mice; any time after dosing of mipsagargin
[2] = as above; settings: rats; any time after dosing of mipsagargin
[3] = as above; settings: monkeys; any time after dosing of mipsagargin

Measured: Level of cleavage product 12ADT-Asp in plasma

C/C=C(/C)C(=O)O[C@H]1C(C)=C2[C@H]([C@@H]1OC(=O)CCCCCCC)[C@@](C)(OC(C)=O)C[C@H](OC(=O)CCCCCCCCCCCNC(=O)C[C@H](N)C(=O)O)[C@@]1(O)[C@H]2OC(=O)[C@@]1(C)O [12ADT-Asp]
virtually undetectable: all assays above
